# System: various species of microorganism
# Experiment: Well diffusion / Kirby-Bauer test, zones of inhibition
# Type: cell-based
# Details: SA and ASA tested alone, without A^3IS
# Protocol: The purpose of the Kirby-Bauer disk diffusion susceptibility test is to determine the sensitivity or resistance of pathogenic aerobic and facultative anaerobic bacteria to various antimicrobial compounds.
# Escherichia coli (NCIMB 8545), Staphylococcus aureus (NCIMB 951 and Pseudomonas aeruginosa (NCIMB 8626) are grown on nutrient agar or in nutrient broth for 24 hrs at 37° C.
# Candida albicans (NCIMB 3179) and Saccharomyces cerevisiae are grown on sabaroud dextrose agar or in sabaroud dextrose broth for 24 hrs at 37° C.,
# Bacterial growth is monitored by measuring the culture optical density (OD) in a spectrophotometer (Anthos 2010) at a wavelength of 620 nm.
# Agar plates are inoculated by swabbing overnight culture onto the plate surface. Plates are allowed to stand at room temperature for 15 minutes before use. Wells 8.2 mm diameter are bored into the surface of the agar. A 180 μl sample is placed into each well. The samples diffuse into the agar around the well and are assayed for an ability to produce a zone of inhibition. Plates are incubated for 24, 48 or 72 hrs and zones of inhibition are measured using an Autodata automatic zone reader. The diameter of zones, including the diameter of the well (8.2 mm), is recorded.
# Different microbial strains were each plated out according to the above-mentioned methods. […]
row,Compound,antimicrobial activity
1,"CC(=O)Oc1ccccc1C(=O)O [ASA, Acetyl salicylic acid]",no discernible activity
2,"O=C(O)c1ccccc1O [SA, Salicylic acid]",no discernible activity

# Reference: patent US20230050070A1, “Antimicrobial Composition” (ATLANTIC TECHNOLOGIECAL UNIVERSITY, priority 2019, published 2023)
